Among the data in patent publication US20260335313A1, “NOVEL CDK9 INHIBITORS” (Origenis GmbH, priority 2022, published 2026) are IC50 values, retold here.

This experiment deals with T1, CDK9/CyclinT1 (Homo sapiens, UniProt P50750).
T1 construct: purchased ProQinase/Reaction Biology, USA 0371-0345-1
Kind of experiment: CDK9/T1 ADPGlo Activity (ADP Glo Kinase assay, inhibitory activity). To be noted: CDK9/CyclinT1 f.c. 6 nM; PDKtide 40 microM; ATP 10 microM; 10 min preincubation, 120 min at RT; 12 concentrations, 1:3 dilution from 5 microM. The experiment is classed as biochemical. As to the method: ASSAY PROTOCOL for Determination of Inhibitory Activity
The testing compound was evaluated in 12 concentrations in a 1:3 dilution series, starting from 5microM as the highest concentration.
In a white 384 microplate (Greiner bio-one, Austria #784904,) with 2 microL of 3-fold concentrated CDK9/CyclinT1 (ProQinase/Reaction Biology, USA #0371-0345-1, LOT.: 012), final concentration (f.c.) 6 nM, in 1× kinase buffer, 2 microL of compound (3× fold concentrated in f.c. 1.66% DMSO/H2O) was added and incubated at Room Temperature (RT) for 10 min. Then 2 microL of Substrate/ATP-Mix (3× PDKtide f.c. 40 microM, SignalChem Biotech, Canada via Biozol, Eching, Germany #P10-58, LOT.: L2230-7 and 3× UltraPure ATP f.c. 10 microM (ADP Glo Kinase assay, Promega GmbH, Germany #V9102)) were added, mixed and incubated for 120 min at RT.
After incubation time, 5 microL of ADP Glo reagent (ready to use, ADP Glo Kinase assay, Promega GmbH, Germany #V9102) were added, mixed and incubated for 40 min at RT.
In the last step, 10 microL of ADP Glo Detection reagent (ready to use, ADP Glo Kinase assay, Promega GmbH, Germany #V9102) were added, mixed and incubated for 30 min at RT.
GloMax Discover GM3000 Reader (Promega GmbH, Germany 9700000249) was used for the readout.
The inhibitor concentration was plotted against the luminescence to determine the IC50 using XLFit 5.5 (IDBS, Guildford) to fit to a sigmoidal dose response curve with a variable slope.
In general terms: In ADP-Glo the light output rises with the ADP produced.

T1 sequence (P50750 whole entry): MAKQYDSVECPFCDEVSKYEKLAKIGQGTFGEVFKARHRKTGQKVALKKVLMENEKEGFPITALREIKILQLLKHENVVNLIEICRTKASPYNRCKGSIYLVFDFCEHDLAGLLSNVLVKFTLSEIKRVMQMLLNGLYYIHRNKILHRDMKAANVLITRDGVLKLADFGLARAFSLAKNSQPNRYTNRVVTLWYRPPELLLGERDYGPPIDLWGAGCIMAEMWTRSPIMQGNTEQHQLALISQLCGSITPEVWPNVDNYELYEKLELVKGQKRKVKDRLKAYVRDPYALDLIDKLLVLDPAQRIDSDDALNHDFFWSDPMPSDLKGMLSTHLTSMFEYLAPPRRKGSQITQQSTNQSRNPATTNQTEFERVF
T1 sequence (O60563 whole entry partner): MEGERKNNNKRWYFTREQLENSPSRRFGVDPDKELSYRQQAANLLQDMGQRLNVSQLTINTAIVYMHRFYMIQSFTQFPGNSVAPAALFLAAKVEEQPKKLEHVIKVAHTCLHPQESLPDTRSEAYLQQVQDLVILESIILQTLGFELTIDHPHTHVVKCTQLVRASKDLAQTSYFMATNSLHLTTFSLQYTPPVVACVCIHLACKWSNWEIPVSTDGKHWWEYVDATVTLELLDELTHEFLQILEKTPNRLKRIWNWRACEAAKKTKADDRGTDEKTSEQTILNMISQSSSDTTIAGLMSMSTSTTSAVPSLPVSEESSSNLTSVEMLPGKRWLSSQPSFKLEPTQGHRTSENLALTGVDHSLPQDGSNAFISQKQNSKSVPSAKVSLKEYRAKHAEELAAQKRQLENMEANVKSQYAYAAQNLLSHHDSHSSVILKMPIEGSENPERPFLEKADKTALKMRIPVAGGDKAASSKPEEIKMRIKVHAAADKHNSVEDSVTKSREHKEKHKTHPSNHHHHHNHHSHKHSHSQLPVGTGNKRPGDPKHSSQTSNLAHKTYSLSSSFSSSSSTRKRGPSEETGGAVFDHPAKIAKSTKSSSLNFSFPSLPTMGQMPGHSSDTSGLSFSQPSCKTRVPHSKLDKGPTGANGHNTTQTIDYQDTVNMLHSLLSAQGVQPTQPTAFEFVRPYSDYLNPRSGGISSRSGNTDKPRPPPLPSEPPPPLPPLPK

Usually IC50 stands for the concentration that inhibits the measured activity by half. The compound `CC1CN(S(C)(=O)=O)CCC1Nc1cc(-c2c(F)cccc2F)nn2c(Cl)cnc12` (racemic) [Example #14, 3-chloro-6-(2,6-difluorophenyl)-N-(3-methyl-1-(methylsulfonyl)piperidin-4-yl)imidazo[1,2-b]pyridazin-8-amine] yielded an IC50 of under 200 nM.

As for `CC1CNCCC1Nc1cc(-c2c(F)cccc2F)nn2c(Cl)cnc12` (racemic) [Example #15, 3-chloro-6-(2,6-difluorophenyl)-N-(3-methylpiperidin-4-yl)imidazo[1,2-b]pyridazin-8-amine], the IC50 is under 200 nM. For the compound `CC1CN(C(=O)OC(C)(C)C)CCC1Nc1cc(-c2c(F)cccc2F)nn2c(Cl)cnc12` (racemic) [Example #16, tert-butyl-4-((3-chloro-6-(2,6-difluorophenyl)imidazo[1,2-b]pyridazin-8-yl)amino)-3-methylpiperidine-1-carboxylate], the half-inhibitory concentration (IC50) is under 200 nM. Consider `CN1CCC(Nc2cc(-c3c(F)cccc3F)nn3c(Cl)cnc23)C1` (racemic) [Example #18, 3-chloro-6-(2,6-difluorophenyl)-N-(1-methylpyrrolidin-3-yl)imidazo[1,2-b]pyridazin-8-amine], for which the IC50 was under 20 nM.

As for `CN1CCN([C@H]2CC[C@H](Nc3cc(-c4c(F)cccc4F)nn4c(Cl)cnc34)CC2)CC1` [Example #1, 3-chloro-6-(2,6-difluorophenyl)-N-((1r,4r)-4-(4-methylpiperazin-1-yl)cyclohexyl)imidazo[1,2-b]pyridazin-8-amine], the IC50 was under 200 nM.

With `Cc1cc(C)c(CNc2cc(-c3c(F)cccc3F)nn3c(Cl)cnc23)cn1` [Example #3, 3-chloro-6-(2,6-difluorophenyl)-N-((4,6-dimethylpyridin-3-yl)methyl)imidazo[1,2-b]pyridazin-8-amine], the IC50 is under 20 nM. In turn, `Fc1cccc(F)c1-c1cc(NCc2cccnc2)c2ncc(Cl)n2n1` [Example #4, 3-chloro-6-(2,6-difluorophenyl)-N-(pyridin-3-ylmethyl)imidazo[1,2-b]pyridazin-8-amine] registered an IC50 of under 20 nM. Regarding `NC1CCC(Nc2c(Cl)c(-c3c(F)cccc3F)nn3c(Cl)cnc23)CC1` (stereo not shown) [Example #8, (1r,4r)-N1-(3,7-dichloro-6-(2,6-difluorophenyl)imidazo[1,2-b]pyridazin-8-yl)cyclohexane-1,4-diamine], the IC50 was under 200 nM. `N[C@H]1CC[C@H](Nc2cc(-c3c(F)cccc3F)nn3c(Cl)cnc23)CC1` [Example #9, (1r,4r)-N1-(3-chloro-6-(2,6-difluorophenyl)imidazo[1,2-b]pyridazin-8-yl)cyclohexane-1,4-diamine] yielded an IC50 of under 200 nM. The compound `CN1CCC(Nc2cc(-c3c(F)cccc3F)nn3c(Cl)cnc23)CC1` [Example #10, 3-chloro-6-(2,6-difluorophenyl)-N-(1-methylpiperidin-4-yl)imidazo[1,2-b]pyridazin-8-amine] yielded an IC50 of under 20 nM. With `Fc1cccc(F)c1-c1cc(N[C@H]2CC[C@H](N3CCOCC3)CC2)c2ncc(Cl)n2n1` [Example #11, 3-chloro-6-(2,6-difluorophenyl)-N-((1r,4r)-4-morpholinocyclohexyl)imidazo[1,2-b]pyridazin-8-amine], the IC50 is under 20 nM.

`CN(C)[C@H]1CC[C@H](Nc2cc(-c3c(F)cccc3F)nn3c(Cl)cnc23)CC1` [Example #12, (1r,4r)-N1-(3-chloro-6-(2,6-difluorophenyl)imidazo[1,2-b]pyridazin-8-yl)-N4,N4-dimethylcyclohexane-1,4-diamine] showed an IC50 of under 200 nM. The compound `CS(=O)(=O)N1CCC(Nc2cc(-c3c(F)cccc3F)nn3c(Cl)cnc23)CC1` [Example #17, 3-chloro-6-(2,6-difluorophenyl)-N-(1-(methylsulfonyl)piperidin-4-yl)imidazo[1,2-b]pyridazin-8-amine] displayed an IC50 of under 20 nM.
